{"source": "patent US6337318B1", "about": "“Sustained GnRH peptide-release formulation” (Peptech, Ltd., priority 1996, dated 2002)", "key": {"[1]": {"tested_on": "prostate cancer in rats", "details": "controlled dose over 30 days vs equivalent or double daily doses of free peptide; cited from earlier work"}, "[2]": {"tested_on": "plasma testosterone", "assay": "suppression of plasma testosterone levels in implanted dogs", "type": "in vivo, dog", "details": "5% deslorelin; for duration of suppression of testosterone levels: rods of 93% stearin, 2% lecithin, 0.5, 1 or 2 x 120 mg rod containing 6 mg deslorelin", "procedure": "(§1) Stearin (supplied as free flowing beads of 1 mm or less in diameter made by Vandenberg Foods) and lecithin (supplied as a deep brown viscous syrup from R P Schearer) were hand mixed using a spatula in a small beaker. The deslorelin was then added and thoroughly mixed into the excipients. The mixed material was transferred to the barrel of a ram extruder that has a 1 mm nozzle attached and is equilibrated to 55° C. The ram extrusion pressure is 40 psi. The ram was attached and pressure applied until the product began to extrude. At this point the pressure was backed off and the product allowed to reach 55° C. The product was then extruded-3 g over a 30 second period. The resulting extrudate was allowed to cool and then broken up and re-extruded through a 1 mm nozzle. This step was included to ensure uniformity of content throughout the matrix. The 1 mm nozzle was then replaced with a 2.3 mm diameter nozzle. The same product temperature equilibration procedure was conducted prior to extrusion. The product was then extruded and after cooling the long rods produced could be sectioned into lengths of the required weight.\n(§2) The rods produced were implanted into male dogs using standard techniques.\nStearin beads (ADMUL PO 58 from Quest International Australasia Limited) and lecithin (Topcithin 300, Bronson & Jacobs, Australia) were hand mixed using a spatula in a small beaker. The deslorelin was then added and thoroughly mixed into the excipients. The material was transferred to the barrel of a ram extruder that has a 1 mm nozzle attached and is equilibrated to 55.8° C. The ram extrusion pressure is 40 psi. The ram was then attached and pressure applied until the product began to extrude. At this point the pressure was backed off and the product allowed to reach 55.8° C. The product was then extruded-3 g over a 30 second period. The resulting extrudate was allowed to cool and then broken up before re-extruding the mixed granulation through the 1 mm nozzle at 58.3° C. and into an injectable mould that generates a finished rod product that is 2.3 mm in diameter and approximately 25 mm long. […]"}, "[3]": {"tested_on": "male dogs", "assay": "testicular size in male dogs implanted with rods", "type": "in vivo, dog", "details": "implanted rods of 94% stearin, 5% deslorelin, 1% lecithin", "procedure": "as §1, §2"}, "[4]": {"assay": "in vitro release of deslorelin from the rods", "type": "physicochemical", "details": "rods of 94% stearin, 5% deslorelin (on an active basis), 1% lecithin", "procedure": "Typically, the formulation of the first aspect will release the peptide agonist or analogue, in vitro, into phosphate buffered saline (PBS: pH 7.3, prepared by dissolving 8.00 g of sodium chloride, 1.00 g di-sodium hydrogen phosphate anhydrous, 0.40 g sodium dihydrogen phosphate dihydrate (0.31 g if anydrous), and 0.05 g sodium azide in 1 litre of deionised water), at 37° C. at a rate of about 2-350 μg/day for at least 200 days but preferably for at least 300 days.\nas §1, with “The same product temperature equilibration procedure was conducted prior to extrusion. The product was then extruded and after cooling the long rods produced could be sectioned into lengths of the required weight.” left out"}, "[5]": {"tested_on": "estradiol levels", "details": "female patients; provided peptide delivered so as to maintain a constant minimum blood level; cited from earlier work"}, "[6]": {"tested_on": "advanced prostatic cancer", "details": "monthly subcutaneous injections, advanced prostatic cancer patients; cited from earlier work"}}}
{"compound": "5-oxo-L-prolyl-L-histidyl-L-tryptophyl-L-seryl-L-tyrosyl-D-tryptophyl-L-leucyl-L-arginyl-L-prolylglycinamide. [triptorelin]", "values": [{"measurement": "suppression of prostate tumour weight, microencapsulated form versus daily subcutaneous free peptide", "setting": "[1]", "value": "more effective"}, {"measurement": "suppression of serum testosterone levels, microencapsulated form versus daily subcutaneous free peptide", "setting": "[1]", "value": "more effective"}]}
{"compound": "CCNC(=O)[C@@H]1CCCN1C(=O)[C@H](CCCN=C(N)N)NC(=O)[C@H](CC(C)C)NC(=O)[C@@H](Cc1c[nH]c2ccccc12)NC(=O)[C@H](Cc1ccc(O)cc1)NC(=O)[C@H](CO)NC(=O)[C@H](Cc1c[nH]c2ccccc12)NC(=O)[C@H](Cc1cnc[nH]1)NC(=O)[C@@H]1CCC(=O)N1", "note": "[deslorelin, [6-D-tryptophan-9-(N-ethyl-L prolinamide)-10-deglycinamide]]", "values": [{"measurement": "duration of suppression of testosterone levels", "setting": "[2]; bitches", "value": "at least 5 months"}, {"measurement": "duration of suppression of testosterone levels", "setting": "[2]; dogs (male)", "value": "≥ 12", "unit": "months"}, {"measurement": "duration of suppression of plasma testosterone levels", "setting": "[2]; male dogs, implanted rods of 94% stearin, 1% lecithin", "value": "at least 4 months"}, {"measurement": "duration of continued decline in testicular size", "setting": "[3]", "value": "at least 5 months"}, {"measurement": "duration of release of deslorelin from the rods in vitro", "setting": "[4]", "value": "up to 250 days"}, {"measurement": "suppression of estradiol levels", "setting": "[5]", "value": "effective"}]}
{"compound": "CC(C)C[C@H](NC(=O)[C@@H](COC(C)(C)C)NC(=O)[C@H](Cc1ccc(O)cc1)NC(=O)[C@H](CO)NC(=O)[C@H](Cc1c[nH]c2ccccc12)NC(=O)[C@H](Cc1cnc[nH]1)NC(=O)[C@@H]1CCC(=O)N1)C(=O)N[C@@H](CCCNC(=N)N)C(=O)N1CCC[C@H]1C(=O)NNC(N)=O", "note": "[goserelin, 3-[5 oxo-L-prolyl-L-tryptophyl-L-seryl-L-tyrosyl-(3-O-tert-butyl)-D-seryl-L-leucyl-L-arginyl-L-prolyl] cabazamide acetate.]", "values": [{"measurement": "efficacy compared with orchiectomy", "setting": "[6]", "value": "as effective as orchiectomy"}, {"measurement": "tolerability", "setting": "[6]", "value": "well tolerated"}]}
